Read-outs that look alike come from different tables or passages of the source.
What was measured:
NCI-H460 cells = test: Proliferation assay NCI-H460; format: cell-based, human; conditions: 4 days, crystal violet, read-out: Inhibition of NCI-H460 cell proliferation IC50
Experimental: Cultivated tumour cells (HeLa, human cervical tumour cells, ATCC CCL-2; NCI-H460, human non-small cell lung carcinoma cells, ATCC HTB-177; A2780, human ovarian carcinoma cells, ECACC #93112519; DU 145, hormone-independent human prostate carcinoma cells, ATCC HTB-81; HeLa-MaTu-ADR, multidrug-resistant human cervical carcinoma cells, EPO-GmbH Berlin; Caco-2, human colorectal carcinoma cells, ATCC HTB-37; B16F10, mouse melanoma cells, ATCC CRL-6475) were plated at a density of 5,000 cells/well (DU145, HeLa-MaTu-ADR), 3,000 cells/well (NCI-H460, HeLa), 2,500 cells/well (A2780), 1,500 cells/well (Caco-2), or 1,000 cells/well (B16F10) in a 96-well multititer plate in 200 μL of their respective growth medium supplemented 10% fetal calf serum. After 24 hours, the cells of one plate (zero-point plate) were stained with crystal violet (see below), while the medium of the other plates was replaced by fresh culture medium (200 μl), to which the test substances were added in various concentrations (0 μM, as well as in the range of 0.001-10 μM). The cells were incubated for 4 days in the presence of test substances. Cell proliferation was determined by staining the cells with crystal violet: the cells were fixed by adding 20 μl/measuring point of an 11% glutaric aldehyde solution for 15 minutes at room temperature. After three washing cycles of the fixed cells with water, the plates were dried at room temperature. The cells were stained by adding 100 μl/measuring point of a 0.1% crystal violet solution (pH 3.0). After three washing cycles of the stained cells with water, the plates were dried at room temperature. The dye was dissolved by adding 100 μl/measuring point of a 10% acetic acid solution. The extinction was determined by photometry at a wavelength of 595 nm. The change of cell number, in percent, was calculated by normalization of the measured values to the extinction values of the zero-point plate (=0%) and the extinction of the untreated (0 μm) cells (=100%). The IC50 values (inhibitory concentration at 50% of maximal effect) were determined by means of a 4 parameter fit. Non-adherent MOLM-13 human acute myeloid leukemia cells (DSMZ ACC 554) were seeded at a density of 5,000 cells/well in a 96-well multititer plate in 100 μL of growth medium supplemented 10% fetal calf serum. After 24 hours, cell viability of one plate (zero-point plate) was determined with the Cell Titre-Glo Luminescent Cell Viability Assay (Promega), while 50 μL of test compound containing medium was added to the wells of the other plates (final concentrations in the range of 0.001-1 μM and DMSO controls). Cell viability was assessed after 72-hour exposure with the Cell Titre-Glo Luminescent Cell Viability Assay (Promega). IC50 values (inhibitory concentration at 50% of maximal effect) were determined by means of a 4 parameter fit on measurement data which were normalized to vehicle (DMSO) treated cells (=100%) and measurement readings taken immediately before compound exposure (=0%).

CDK9/CycT1 = biological target: T1, CDK9/CycT1 (Homo sapiens, UniProt P50750); test: CDK9/CycT1 kinase assay (TR-FRET, Method 1a); format: biochemical; conditions: for IC50: Method 1a, 10 μM ATP; for Selectivity CDK9 over CDK2: IC50 (CDK2)/IC50 (CDK9): Methods 1a and 2a, minimal values where CDK9 IC50 is at the assay limit
T1 construct: Recombinant full-length His-tagged human CDK9 and CycT1; His; purchased Invitrogen PV4131; host or cells: insect cells
Source text: 1a. CDK9/CycT1 Kinase Assay:
CDK9/CycT1-inhibitory activity of compounds of the present invention was quantified employing the CDK9/CycT1 TR-FRET assay as described in the following paragraphs:
Recombinant full-length His-tagged human CDK9 and CycT1, expressed in insect cells and purified by Ni-NTA affinity chromatography, were purchased from Invitrogen (Cat. No PV4131). As substrate for the kinase reaction biotinylated peptide biotin-Ttds-YISPLKSPYKISEG (C-terminus in amid form) was used which can be purchased e.g. from the company JERINI Peptide Technologies (Berlin, Germany). For the assay 50 nl of a 100 fold concentrated solution of the test compound in DMSO was pipetted into a black low volume 384 well microtiter plate (Greiner Bio-One, Frickenhausen, Germany), 2 μl of a solution of CDK9/CycT1 in aqueous assay buffer [50 mM Tris/HCl pH 8.0, 10 mM MgCl2, 1.0 mM dithiothreitol, 0.1 mM sodium ortho-vanadate, 0.01% (v/v) Nonidet-P40 (Sigma)] were added and the mixture was incubated for 15 min at 22° C. to allow pre-binding of the test compounds to the enzyme before the start of the kinase reaction. […] The concentration of CDK9/CycT1 was adjusted depending of the activity of the enzyme lot and was chosen appropriate to have the assay in the linear range, typical concentrations were in the range of 1 μg/mL. The reaction was stopped by the addition of 5 μl of a solution of TR-FRET detection reagents (0.2 μM streptavidine-XL665 [Cisbio Bioassays, Codolet, France] and 1 nM anti-RB(pSer807/pSer811)-antibody from BD Pharmingen [#558389] and 1.2 nM LANCE EU-W1024 labeled anti-mouse IgG antibody [Perkin-Elmer, product no. AD0077]) in an aqueous EDTA-solution (100 mM EDTA, 0.2% (w/v) bovine serum albumin in 100 mM HEPES pH 7.5).
The resulting mixture was incubated 1 h at 22° C. to allow the formation of complex between the phosphorylated biotinylated peptide and the detection reagents. Subsequently the amount of phosphorylated substrate was evaluated by measurement of the resonance energy transfer from the Eu-chelate to the streptavidine-XL. Therefore, the fluorescence emissions at 620 nm and 665 nm after excitation at 350 nm was measured in a HTRF reader, e.g. a Rubystar (BMG Labtechnologies, Offenburg, Germany) or a Viewlux (Perkin-Elmer). The ratio of the emissions at 665 nm and at […] was taken as the measure for the amount of phosphorylated substrate. The data were normalised (enzyme reaction without inhibitor=0% inhibition, all other assay components but no enzyme=100% inhibition).

T1 sequence (P50750 whole entry): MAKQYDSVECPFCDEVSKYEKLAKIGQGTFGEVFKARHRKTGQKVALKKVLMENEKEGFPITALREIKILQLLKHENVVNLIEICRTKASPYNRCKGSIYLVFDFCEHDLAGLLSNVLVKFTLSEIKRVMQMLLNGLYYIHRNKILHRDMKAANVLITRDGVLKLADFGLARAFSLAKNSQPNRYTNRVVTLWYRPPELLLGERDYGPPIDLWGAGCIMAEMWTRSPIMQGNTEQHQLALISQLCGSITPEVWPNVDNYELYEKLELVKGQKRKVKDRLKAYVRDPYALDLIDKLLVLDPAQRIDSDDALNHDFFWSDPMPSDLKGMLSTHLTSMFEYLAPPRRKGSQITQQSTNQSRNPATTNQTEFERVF
T1 sequence (O60563 whole entry partner): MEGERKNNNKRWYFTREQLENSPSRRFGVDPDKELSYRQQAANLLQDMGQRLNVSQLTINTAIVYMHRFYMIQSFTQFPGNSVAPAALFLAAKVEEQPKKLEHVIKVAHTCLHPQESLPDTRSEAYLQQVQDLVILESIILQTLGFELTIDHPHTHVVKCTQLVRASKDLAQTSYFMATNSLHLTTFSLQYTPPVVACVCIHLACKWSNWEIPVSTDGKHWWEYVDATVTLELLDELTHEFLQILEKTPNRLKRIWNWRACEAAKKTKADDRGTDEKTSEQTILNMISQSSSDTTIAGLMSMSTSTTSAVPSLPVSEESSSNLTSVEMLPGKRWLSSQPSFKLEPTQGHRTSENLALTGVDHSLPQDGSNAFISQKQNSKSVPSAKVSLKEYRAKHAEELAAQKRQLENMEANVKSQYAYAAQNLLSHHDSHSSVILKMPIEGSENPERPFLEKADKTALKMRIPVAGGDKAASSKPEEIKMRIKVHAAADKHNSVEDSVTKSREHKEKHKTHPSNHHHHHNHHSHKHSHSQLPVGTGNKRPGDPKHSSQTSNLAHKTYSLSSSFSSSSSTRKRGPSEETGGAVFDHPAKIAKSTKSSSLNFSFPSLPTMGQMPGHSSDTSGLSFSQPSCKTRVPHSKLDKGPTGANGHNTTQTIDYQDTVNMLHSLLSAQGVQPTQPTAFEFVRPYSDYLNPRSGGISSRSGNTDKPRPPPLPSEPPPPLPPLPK

| Molecule | IC50 (NCI-H460 cells; Homo sapiens, NCI-H460, 96 h) | IC50 (CDK9/CycT1) | Selectivity CDK9 over CDK2: IC50 (CDK2)/IC50 (CDK9) (CDK9/CycT1) | IC50 (NCI-H460 cells) | IC50 (NCI-H460 cells; trifluoroacetate) |
| --- | --- | --- | --- | --- | --- |
| CS(=N)(=O)Cc1cc2nc(c1)OCCCOc1cc(F)ccc1-c1cc(ncc1F)N2 (single isomer, unassigned; enantiomer 1) [Example 6, 15,19-Difluoro-8-[(S-methylsulfonimidoyl)methyl]-3,4-dihydro-2H,11H-10,6-(azeno)-12,16-(metheno)-1,5,11,13-benzodioxadiazacyclooctadecine; Enantiomer 1] | 14 nM | 3 nM | 0.9 | – | – |
| ({[15,19-difluoro-3,4-dihydro-2H,11H-10,6-(azeno)-12,16-(metheno)-1,5,11,13-benzodioxadiazacyclooctadecin-8-yl]methyl}sulfonyl)acetic acid [Example 27] | – | 2.9 nM | 0.8 | 3040 nM | – |
| C[S+]([O-])Cc1cc2nc(c1)OCCCOc1cc(F)ccc1-c1cc(ncc1F)N2 (racemic) [Example 4, (rac)-15,19-Difluoro-8-[(methylsulfinyl)methyl]-3,4-dihydro-2H,11H-10,6-(azeno)-12,16-(metheno)-1,5,11,13-benzodioxadiazacyclooctadecine] | 12 nM | 2.8 nM | 1.7 | – | – |
| CS(=N)(=O)Cc1cc2cc(c1)OCCCCOc1cc(F)ccc1-c1nc(ncc1F)N2 (racemic) [Example 1, (rac)-16,20-Difluoro-9-[(S-methylsulfonimidoyl)methyl]-2,3,4,5-tetrahydro-12H-13,17-(azeno)-11,7-(metheno)-1,6,12,14-benzodioxadiazacyclononadecine] | 20 nM | 2.9 nM | 7.4 | – | – |
| CC(=O)N=S(C)(=O)Cc1cc2nc(c1)OCCCOc1cc(F)ccc1-c1cc(ncc1F)N2 (racemic) [Example 18, (rac)-N-[{[15,19-difluoro-3,4-dihydro-2H,11H-10,6-(azeno)-12,16-(metheno)-1,5,11,13-benzodioxadiazacyclooctadecin-8-yl]methyl}(methyl)oxido-λ^6-sulfanylidene]acetamide] | 27 nM | 4.9 nM | 1.7 | – | – |
| C[S+]([O-])Cc1cc2nc(c1)OCCOc1cc(F)ccc1-c1cc(ncc1F)N2 (racemic) [Example 10, (rac)-14,18-difluoro-7-[(methylsulfinyl)methyl]-2,3-dihydro-10H-9,5-(azeno)-11,15-(metheno)-1,4,10,12-benzodioxadiazacycloheptadecine] | 393 nM | 7.3 nM | 56.5 | – | – |
| CS(=O)(Cc1cc2nc(c1)OCCCOc1cc(F)ccc1-c1cc(ncc1F)N2)=NS(=O)(=O)CCN.O=C(O)C(F)(F)F (racemic) [Example 24, (rac)-2-{[{[15,19-difluoro-3,4-dihydro-2H,11H-10,6-(azeno)-12,16-(metheno)-1,5,11,13-benzodioxadiazacyclooctadecin-8-yl]methyl}(methyl)oxido-λ^6-sulfanylidene]sulfamoyl}ethanaminium trifluoroacetate] | – | 2.2 nM | 6.2 | – | 391 nM |
| CS(=N)(=O)Cc1cc2nc(c1)OCCOc1cc(F)ccc1-c1cc(ncc1F)N2 (racemic) [Example 11, (rac)-14,18-difluoro-7-[(S-methylsulfonimidoyl)methyl]-2,3-dihydro-10H-9,5-(azeno)-11,15-(metheno)-1,4,10,12-benzodioxadiazacycloheptadecine] | 186 nM | 2.5 nM | 72.6 | – | – |
| C[S+]([O-])Cc1cc2nc(c1)OCCCCOc1cc(F)ccc1-c1cc(ncc1F)N2 (racemic) [Example 13, (rac)-16,20-difluoro-9-[(methylsulfinyl)methyl]-2,3,4,5-tetrahydro-12H-11,7-(azeno)-13,17-(metheno)-1,6,12,14-benzodioxadiazacyclononadecine] | 33 nM | 4 nM | 4.2 | – | – |
| CS(=O)(Cc1cc2cc(c1)OCCCOc1cc(F)ccc1-c1nc(ncc1F)N2)=NC(=O)C(F)(F)F (racemic) [Example 16, (rac)-N-[{[15,19-difluoro-3,4-dihydro-2H,11H-12,16-(azeno)-10,6-(metheno)-1,5,11,13-benzodioxadiazacyclooctadecin-8-yl]methyl}(methyl)oxido-λ^6-sulfanylidene]-2,2,2-trifluoroacetamide] | 26 nM | 3.9 nM | 14.8 | – | – |
| CSCc1cc2nc(c1)OCCCCOc1cc(F)ccc1-c1cc(ncc1F)N2 [Example 12, 16,20-Difluoro-9-[(methylsulfanyl)methyl]-2,3,4,5-tetrahydro-12H-11,7-(azeno)-13,17-(metheno)-1,6,12,14-benzodioxadiazacyclononadecine] | 63 nM | 16.5 nM | 6.9 | – | – |
| CS(=N)(=O)Cc1cc2cc(c1)OCCCOc1cc(F)ccc1-c1nc(ncc1F)N2 (racemic) [Example 15, (rac)-15,19-difluoro-8-[(S-methylsulfonimidoyl)methyl]-3,4-dihydro-2H,11H-12,16-(azeno)-10,6-(metheno)-1,5,11,13-benzodioxadiazacyclooctadecine] | 30 nM | 3.8 nM | 6.8 | – | – |
| CS(=O)(=O)N=S(C)(=O)Cc1cc2nc(c1)OCCCOc1cc(F)ccc1-c1cc(ncc1F)N2 (racemic) [Example 22, (rac)-N-[{[15,19-difluoro-3,4-dihydro-2H,11H-10,6-(azeno)-12,16-(metheno)-1,5,11,13-benzodioxadiazacyclooctadecin-8-yl]methyl}(methyl)oxido-λ^6-sulfanylidene]methanesulfonamide] | 36 nM | 5.3 nM | 3.7 | – | – |

— patent US9963464B2, “Macrocyclic compounds” (Bayer Pharma Aktiengesellschaft, priority 2014, dated 2018)
